“And” between values parts separate entries of the source, which are not always exact repeats. Equal values may be shown once.
Legend:
[1] = test system: retinal ganglion cells (RGCs); assay: Chronic high IOP model (laser-induced), IOP-induced RGC death; format: in vivo, rat; conditions: for % of death of RGCs: non-thymectomized rats; for % of death of RGCs / loss of RGCs (% death): treatment started immediately after IOP elevation (Cop-1 single injection, brimonidine daily), 3 weeks; for loss of RGCs (% death): thymectomized (T cell-deprived) rats
Text: (§1) Inbred adult male Lewis and Sprague-Dawley (SPD) rats (8 weeks; average weight 300 g) were supplied by the Animal Breeding Center at The Weizmann Institute of Science (Rehovot, Israel). The rats were maintained in a light- and temperature-controlled room and were matched for age and weight before each experiment. All animals were handled according to the regulations formulated by IACUC ([…]).
Blockage of aqueous outflow causes an increase in IOP, which results in RGC death (Bakalash et al., 2002; Schori et al., 2001; Jia et al., 2000a; Levkovitch-Verbin et al., 2002). […] Rats were deeply anesthetized by intramuscular injection of ketamine hydrochloride (50 mg/kg) and xylazine hydrochloride (0.5 mg/kg). A slit lamp emitting blue-green argon laser irradiation (Haag-Streit, Köniz, Switzerland) was used to treat the right eye of the anesthetized rat with 80 to 120 applications directed toward three of the four episcleral veins and toward 270° of the limbal plexus. The laser beam was applied with a power of 1 W for 0.2 seconds, producing a spot size of 100 μm at the episcleral veins and 50 μm at the limbal plexus. At a second laser session 1 week later, the same parameters were used, except that the spot size was 100 μm in all applications. Irradiation was directed toward all four episcleral veins and 360° of the limbal plexus (Schori et al. 2001).
(§2) Eyes from untreated rats were used as a control. RGCs were counted by an observer who was blinded to the identity of the retinas.
Rats with either laser-induced increase in IOP or acute IOP elevation were immunized with Cop 1 (100 μg) (Teva Pharmaceutical Industries Ltd., Petach Tikva, Israel) emulsified in 2.5 mg/ml of CFA in a total volume of 100 μl (Kipnis et al., 2000). Each animal was vaccinated subcutaneously at the root of the tail.
(§3) Cop-1 in PBS was given at different concentrations and at different time points after the primary insult subcutaneously. Topical administration of Cop-1 was done after immersing the substance in PBS at a concentration of 20 mg/ml. Since each drop was of 50 μl, we administered 1 drop every 5 minutes for a total of 5 drops in 25 minutes.

[2] = test system: retinal ganglion cells (RGCs); assay: Acute transient high IOP model, IOP-induced RGC death; format: in vivo, Lewis rats
Text: as §1
The infusion bag was placed 1 meter above the rat's head, creating a closed loop circulation. High IOP was induced for exactly 1 hour after which the needle was removed from the eye and the hole was self-sealed.
as §2, §3

Row | Compound | % of death of RGCs [1] | loss of RGCs (% death) [1] | % of RGC death ([1]; Cop-1 emulsified in CFA, day of first laser plus 2, 6 and 9 weeks later, retinas excised 12 weeks after first laser, n=5) | % of RGC death ([1]; Cop-1 emulsified in CFA, immunized on day of first laser, retinas excised 3 weeks later, n=7) | % of RGC death ([1]; adjuvant-free 500 μg, daily injections for 7 days starting on day 0, retinas excised 3 weeks later) | % of RGC death ([1]; adjuvant-free 500 μg, single injection on day 7 after first laser, retinas excised 3 weeks later) | % of RGC death ([1]; adjuvant-free, subcutaneous, 100 μg on first day of laser treatment) | % of RGC death ([1]; adjuvant-free, subcutaneous, 250 μg on first day of laser treatment) | % of RGC death ([1]; adjuvant-free, subcutaneous, 500 μg on first day of laser treatment) | RGC protection 6 weeks after IOP was first elevated, comparison of regimens ([1]; adjuvant-free, two injections (day 0 and 3 weeks later) versus a single injection after 3 weeks) | number of RGCs ([1]; eye drops without adjuvant, 5 mg Cop-1, assessed 3 weeks after pressure elevation, p<10^-5) | Average death rate of RGCs ([2]; 5 mg Cop-1 over 25 minutes immediately after 1 hour of elevated IOP, two weeks after IOP elevation, n=4) | RGC protection, eye drops applied to the eye contralateral to the elevated pressure ([2]; Cop-1 eye drops to contralateral side versus ipsilateral) | loss of RGCs ([2]; Cop-1 without adjuvant, 2 weeks after transient IOP elevation (1 hour))
1 | Brc1c(NC2=NCCN2)ccc2nccnc12 [brimonidine] | 34.5±3.51% | 38±7% |  |  |  |  |  |  |  |  |  |  |  | 
2 | glatiramer acetate [Cop-1] | 23.5±5.7% | 55±5.2% and 55% | 33.7±1.4% | 12.6±5% | 41.41±6% | 19.1±14.7% | 44±6% | 50.5±8% | 26.6±10% | more effective than a single injection after 3 weeks | 150 RGCs | 31.12%±3.22 | same effect as when given ipsilaterally | 20%

Reference: patent publication US8895501B2, “Eye-drop vaccine containing copolymer 1 for therapeutic immunization” (Yeda Research and Development Co. Ltd., priority 2003, dated 2014)
